US10836742B2, “N-substituted bicyclic lactams, their preparation and their use as pharmaceuticals” (NEOMED Institute, priority 2015, dated 2020)

How the values were obtained:
[1] = test system: human C-Myc gene transcription in MV-4-11 cells; assay: Transcription of human C-Myc in human leukemic MV-4-11 cells (QuantiGene 2.0); assay type: cell-based; conditions: inhibition of C-Myc mRNA transcription, 4 hours treatment
Description: b) Transcription of Human C-Myc in Human Leukemic MV-4-11 Cells:
The effect of compounds on transcription of human C-Myc gene is monitored in human B-myelomonocytic leukemia cell line MV-4-11 (from American Type Culture Collection (ATCC), Manassas, Va., USA) using QuantiGene 2.0 assay kit (Affymetrix, Santa Clara, Calif., USA).
Typically, 8,000 MV-4-11 cells are plated in sterile 96-well plates (Costar #3598 from Fisher Scientific Canada, Ottawa, Ontario, Canada) in Iscove's medium supplemented with 10% fetal bovine serum, glutamine (2 mM), and penicillin (100 I.U.) and streptomycin (100 μg/mL) (all from Wisent Inc., St. Bruno, Quebec, Canada). Compounds are dissolved in DMSO at 30 mM. A series of 1:3 dilutions are first made in DMSO, and further 1:100 dilutions are made in serum-containing cell culture media. The final concentration of DMSO is 0.1% in cell culture media. After cells are treated with various concentrations of test compound for 4 hours, cells are lysed using Quantigene 2.0 sample processing kit (#QS0100). C-Myc mRNA is detected using a QuantiGene 2.0 assay kit (#QS0009) with gene-specific probe to human C-Myc (#SA-50182) following the manufacturer's recommendations. Luminescene signals are read on Flexstation II microplate reader (Molecular Devices, Sunnyvale, Calif., USA).

[2] = target: BRD4(BD1) (Homo sapiens (Human), UniProt O60885); assay: In vitro bromodomain inhibition assay (AlphaLISA, H4-tetraacetyl peptide); assay type: binding; conditions: His-tagged BRD4 BD1 200 nM, biotinylated H4-tetraacetyl peptide 200 nM
Description: a) In vitro Bromodomain Inhibition Assay
To measure activity of bromodomain inhibitors, a His-epitope tagged BRD4 BD149-170 is purchased from BPS Bioscience. BRD4 binding and inhibition is assessed by monitoring the engagement of biotinylated H4-tetraacetyl peptide (H4K5/8/12/16; AnaSpec #64989-025) with the target using the AlphaLISA technology (Perkin-Elmer). Specifically, in a 384 well OptiPlate, BRD4(BD1) (200 nM final) is pre-incubated with either DMSO (final 1.0% DMSO) or a compound dilution series in DMSO. All reagents are diluted in assay buffer containing 50 mM HEPES (pH 7.4), 100 mM NaCl, 0.1% (w/v) BSA, and 0.05% (w/v) CHAPS. After a 30 minute incubation at room temperature, H4 peptide is added (200 nM final) and the reaction is incubated an additional 30 minutes at room temperature. Alpha streptavidin donor beads and AlphaLISA nickel chelate acceptor beads are then added to a final concentration of 10 μg/mL each. After one hour, equilibration plates are read on an Envision instrument and IC50s calculated using a four parameter non-linear curve fit (results are shown in Table 2).

| Structure (SMILES) | IC50 [1] [nM] | IC50 ([1]; Homo sapiens, MV4-11, 4 h) [nM] | IC50 [2] [nM] |
| --- | --- | --- | --- |
| COc1cc2c(cc1-c1cc(C)c(=O)n(C)c1)CCC(=O)N2C(C)c1ccccn1 (stereo not shown) [Compound 4, 6-(1,5-dimethyl-6-oxo-3-pyridyl)-7-methoxy-1-[1-(2-pyridyl)ethyl]-3,4-dihydroquinolin-2-one] | 830 | – | – |
| COc1cc2c(cc1-c1cc(C)c(=O)n(C)c1)CCC(=O)N2C(C)c1ccccc1 (stereo not shown) [Compound 1, 6-(1,5-dimethyl-6-oxo-3-pyridyl)-7-methoxy-1-(1-phenylethyl)-3,4-dihydroquinolin-2-one] | – | 550 | – |
| Cc1cc(-c2ccc3c(c2)N(CC2CCCCO2)C(=O)CC3)cn(C)c1=O (single isomer, unassigned) [Compound 15, 7-(1,5-dimethyl-6-oxo-3-pyridyl)-1-(tetrahydropyran-2-ylmethyl)-3,4-dihydroquinolin-2-one] | 600 | – | 1530 |
| Cc1cc(-c2ccc3c(c2)N(C(C)c2ccccc2)C(=O)CC3)cn(C)c1=O (single isomer, unassigned) [Compound 12, 7-(1,5-dimethyl-6-oxo-3-pyridyl)-1-(1-phenylethyl)-3,4-dihydroquinolin-2-one] | 900 | – | 910 |
| Cc1cc(-c2ccc3c(c2)N(Cc2ccccc2)C(=O)CO3)cn(C)c1=O [Compound 17, 4-benzyl-6-(1,5-dimethyl-6-oxo-3-pyridyl)-1,4-benzoxazin-3-one] | – | 96 | 460 |
| Cc1cc(-c2ccc3c(c2)N(Cc2ccccc2)C(=O)CC3)cn(C)c1=O [Compound 7, 1-benzyl-7-(1,5-dimethyl-6-oxo-3-pyridyl)-3,4-dihydroquinolin-2-one] | – | 260 | 740 |
| Cc1cc(-c2ccc3c(c2)N(CC2CCCCO2)C(=O)CC3)cn(C)c1=O (single isomer, unassigned) [Compound 14, 7-(1,5-dimethyl-6-oxo-3-pyridyl)-1-(tetrahydropyran-2-ylmethyl)-3,4-dihydroquinolin-2-one] | – | 590 | 3670 |
| Cc1cc(-c2ccc3c(c2)N(CCOC(F)(F)F)C(=O)CC3)cn(C)c1=O [Compound 8, 7-(1,5-dimethyl-6-oxo-3-pyridyl)-1-[2-(trifluoromethoxy)ethyl]-3,4-dihydroquinolin-2-one] | – | 820 | 940 |
| COc1cc(-c2cc(C)c(=O)n(C)c2)cc2c1N(Cc1ccccc1)C(=O)CC2 [Compound 6, 1-benzyl-6-(1,5-dimethyl-6-oxo-1,6-dihydropyridin-3-yl)-8-methoxy-3,4-dihydroquinolin-2(1H)-one] | – | 780 | 2580 |
| Cc1cc(-c2ccc3c(c2)N(Cc2ccccn2)C(=O)CO3)cn(C)c1=O [Compound 18, 6-(1,5-dimethyl-6-oxo-3-pyridyl)-4-(2-pyridylmethyl)-1,4-benzoxazin-3-one] | – | 860 | 580 |
| Cc1cc(-c2ccc3c(c2)N(Cc2ccccn2)C(=O)CC3)cn(C)c1=O [Compound 10, 7-(1,5-dimethyl-6-oxo-3-pyridyl)-1-(2-pyridylmethyl)-3,4-dihydroquinolin-2-one] | – | 540 | 420 |
| COc1cc2c(cc1-c1cc(C)c(=O)n(C)c1)CCC(=O)N2C(C)c1ccccn1 (stereo not shown) [Compound 3, 6-(1,5-dimethyl-6-oxo-3-pyridyl)-7-methoxy-1-[1-(2-pyridyl)ethyl]-3,4-dihydroquinolin-2-one] | – | 900 | – |
| Cc1cc(-c2cc(C)c(=O)n(C)c2)cc2c1N(Cc1ccccc1)C(=O)CC2 [Compound 21, 1-Benzyl-6-(1,5-dimethyl-6-oxo-1,6-dihydropyridin-3-yl)-8-methyl-3,4-dihydroquinolin-2(1H)-one] | – | 810 | – |
| Cc1cc(-c2ccc3c(c2)N(C(C)c2ccccc2)C(=O)CC3)cn(C)c1=O (single isomer, unassigned) [Compound 13, 7-(1,5-dimethyl-6-oxo-3-pyridyl)-1-(1-phenylethyl)-3,4-dihydroquinolin-2-one] | 160 | – | 320 |
| Cc1cc(-c2ccc3c(c2)N(Cc2ccc(F)cc2)C(=O)CC3)cn(C)c1=O [Compound 9, 7-(1,5-dimethyl-6-oxo-3-pyridyl)-1-[(4-fluorophenyl)methyl]-3,4-dihydro-quinolin-2-one] | – | 570 | 700 |
| Cc1cc(-c2cc(Cl)c3c(c2)CCC(=O)N3Cc2ccccc2)cn(C)c1=O [Compound 22, 1-benzyl-8-chloro-6-(1,5-dimethyl-6-oxo-1,6-dihydropyridin-3-yl)-3,4-dihydroquinolin-2(1H)-one] | – | 840 | – |
| Cc1cc(-c2ccc3c(c2)OCC(=O)N3Cc2ccccc2)cn(C)c1=O [Compound 16, 4-benzyl-7-(1,5-dimethyl-6-oxo-3-pyridyl)-1,4-benzoxazin-3-one] | – | 600 | 1580 |
| Cc1cc(-c2ccc3c(c2)N(CC2CC(F)(F)C2)C(=O)CO3)cn(C)c1=O [Compound 19, 4-[(3,3-difluorocyclobutyl)methyl]-6-(1,5-dimethyl-6-oxo-3-pyridyl)-1,4-benzoxazin-3-one] | – | 750 | 810 |
| Cc1cc(-c2ccc3c(c2)CCC(=O)N3Cc2ccccc2)cn(C)c1=O [Compound 5, 1-benzyl-6-(1,5-dimethyl-6-oxo-3-pyridyl)-3,4-dihydroquinolin-2-one] | – | 840 | – |
| COc1cc2c(cc1-c1cc(C)c(=O)n(C)c1)CCC(=O)N2C(C)c1ccccc1 (stereo not shown) [Compound 2, 6-(1,5-dimethyl-6-oxo-3-pyridyl)-7-methoxy-1-(1-phenylethyl)-3,4-dihydroquinolin-2-one] | 830 | – | – |
| Cc1cc(-c2ccc3c(c2)N(CCOC(F)(F)F)C(=O)CO3)cn(C)c1=O [Compound 20, 6-(1,5-dimethyl-6-oxo-3-pyridyl)-4-[2-(trifluoromethoxy)ethyl]-1,4-benzoxazin-3-one] | – | 500 | 880 |
| Cc1cc(-c2ccc3c(c2)N(CC2CC(F)(F)C2)C(=O)CC3)cn(C)c1=O [Compound 11, 1-[(3,3-difluorocyclobutyl)methyl]-7-(1,5-dimethyl-6-oxo-3-pyridyl)-3,4-di hydroquinolin-2-one] | – | 870 | 860 |
